Measured values published in article PMC11003477, “Fluorine and chlorine substituted adamantyl-urea as molecular tools for inhibition of human soluble epoxide hydrolase with picomolar efficacy” (Journal of Enzyme Inhibition and Medicinal Chemistry, 2023).
≈ marks a conversion by molar mass, not a printed value. Where two headings read alike, the source gives them in different places.

Legend:
[1] = molecular target: T1, human sEH (Homo sapiens, UniProt P34913); settings: cited from earlier work
T1 construct: made in house; host or cells: insect cells with baculovirus (given both as High Five cells and as Spodoptera frugiperda 21)
T1 sequence (P34913 1-555): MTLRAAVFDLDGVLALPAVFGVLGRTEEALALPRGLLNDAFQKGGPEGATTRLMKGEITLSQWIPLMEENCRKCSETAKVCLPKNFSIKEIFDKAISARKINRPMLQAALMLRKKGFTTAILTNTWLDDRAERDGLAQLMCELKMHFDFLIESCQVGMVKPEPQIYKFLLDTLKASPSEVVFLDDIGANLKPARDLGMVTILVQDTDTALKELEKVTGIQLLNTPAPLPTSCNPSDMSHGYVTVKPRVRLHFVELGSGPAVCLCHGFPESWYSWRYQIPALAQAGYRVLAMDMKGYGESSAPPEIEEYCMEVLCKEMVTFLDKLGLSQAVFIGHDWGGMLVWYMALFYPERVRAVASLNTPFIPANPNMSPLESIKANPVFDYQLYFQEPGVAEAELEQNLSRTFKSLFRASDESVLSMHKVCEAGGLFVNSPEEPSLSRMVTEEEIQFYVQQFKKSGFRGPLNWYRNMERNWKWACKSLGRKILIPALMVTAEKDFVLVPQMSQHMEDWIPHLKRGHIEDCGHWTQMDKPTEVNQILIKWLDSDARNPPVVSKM

[2] = molecular target: T1, human sEH; test: Human sEH inhibition, kinetic fluorescent assay (CMNPC assay); type: biochemical
Experimental: Recombinant human and recombinant rat sEH were produced in insect High Five cells using recombinant baculovirus expression vectors, and purified by affinity chromatography as reported previously.[31]^,[32] […] Human sEH was obtained by expressing cDNA in the baculovirus system in the cell line Spodoptera frugiperda 21.
Determination of inhibitory potency (IC50) by fluorescent assay (CMNPC assay)[27]
The enzyme (ca. 1 nM human sEH) was incubated at 30 °C with inhibitors ([I]final = 0.4–100,000 nM) for 5 min in 100 mM sodium phosphate buffer (200 μL, pH 7.4) containing 0.1 mg mL^−1 of BSA and 1% of DMSO. The substrate (cyano(2-methoxynaphthalen-6-yl)methyl trans-(3-phenyloxyran-2-yl)methylcarbonate, CMNPC) was then added ([S]final = 5 μM). The activity was assessed by measuring the appearance of the fluorescent 6-methoxynaphthaldehyde product ([…]) at 30 °C during a 10 min incubation (Spectramax M2; Molecular Device, Inc., Sunnyvale, CA).

[3] = Aqueous solubility by turbidimetric assay; type: physicochemical; settings: aqueous buffer, kinetic from dmso stock, sodium phosphate buffer (pH 7.4, 0.1 M) containing 1% of DMSO, read-out: Saq (aqueous solubility)
Experimental: Solubilities were measured in sodium phosphate buffer (pH 7.4, 0.1 M) containing 1% of DMSO by turbidimetric assay.

[4] = CMNPC fluorescent assay, means of three independent experiments, measurement limit 0.04 nM, read-out: IC50

Compound	IC50 [2, 4] [nM]	solubility [3] [µM]	melting point [°C]	IC50 ([2]; value below the accuracy limit of the assay (0.04 nM), read-out: IC50 as measured, before reduction to the measurement limit) [nM]	IC50 ([1]; chlorine derivative of t-AUCB without methylene bridge) [nM]	IC50 ([1]; earlier version of the assay with a measurement limit of 0.4 nM) [nM]
O=C(NC12CC3CC(CC(Cl)(C3)C1)C2)N[C@H]1CC[C@H](Oc2ccc(C(=O)O)cc2)CC1 [Compound 1c]					1.4	
O=C(NCC12CC3CC(CC(F)(C3)C1)C2)N[C@H]1CC[C@H](Oc2ccc(C(=O)O)cc2)CC1 [Compound 9]	0.6	150 ± 20 (≈ 66.7 µg/mL)	85 to 86			
O=C(NCC12CC3CC(CC(Cl)(C3)C1)C2)N[C@H]1CC[C@H](Oc2ccc(C(=O)O)cc2)CC1 [Compound 10]	< 0.04	160 ± 20 (≈ 73.8 µg/mL)	192 to 193			
O=C(NCCCCNC(=O)NCC12CC3CC(CC(F)(C3)C1)C2)NCC12CC3CC(CC(F)(C3)C1)C2 [Compound 11c]	0.5	180 ± 20 (≈ 91.2 µg/mL)	142 to 143			
O=C(NCCCCCNC(=O)NCC12CC3CC(CC(F)(C3)C1)C2)NCC12CC3CC(CC(F)(C3)C1)C2 [Compound 11d]	0.4	140 ± 20 (≈ 72.9 µg/mL)	75 to 76			
O=C(NCCCCCCNC(=O)NCC12CC3CC(CC(F)(C3)C1)C2)NCC12CC3CC(CC(F)(C3)C1)C2 [Compound 11e]	< 0.04	150 ± 20 (≈ 80.2 µg/mL)	82 to 83			
O=C(NCCCCCCCNC(=O)NCC12CC3CC(CC(F)(C3)C1)C2)NCC12CC3CC(CC(F)(C3)C1)C2 [Compound 11f]	< 0.04	200 ± 20 (≈ 110 µg/mL)	77 to 78			
O=C(NCCCCCCCCNC(=O)NCC12CC3CC(CC(F)(C3)C1)C2)NCC12CC3CC(CC(F)(C3)C1)C2 [Compound 11g]	< 0.04	180 ± 20 (≈ 101 µg/mL)	95 to 96			
O=C(NCCCCCCCCCNC(=O)NCC12CC3CC(CC(F)(C3)C1)C2)NCC12CC3CC(CC(F)(C3)C1)C2 [Compound 11h]	0.05	200 ± 20 (≈ 115 µg/mL)	73 to 74			
O=C(NCCCCCCCCCCNC(=O)NCC12CC3CC(CC(F)(C3)C1)C2)NCC12CC3CC(CC(F)(C3)C1)C2 [Compound 11i]	0.05	150 ± 20 (≈ 88.6 µg/mL)	76 to 77			
O=C(NCCCCCCNC(=O)NCC12CC3CC(CC(C3)C1)C2)NCC12CC3CC(CC(C3)C1)C2 [DAMH, 1,1'-(hexane-1,6-diyl)bis(3-(adamantan-1-ylmethyl)urea), reference compound]	0.4	65 ± 5 (≈ 32.4 µg/mL)				1

Continued, in another order:

IC50 [2, 4] [nM]	solubility [3] [µM]	melting point [°C]	IC50 ([2]; value below the accuracy limit of the assay (0.04 nM), read-out: IC50 as measured, before reduction to the measurement limit) [nM]	Compound	IC50 ([1]; chlorine derivative of t-AUCB without methylene bridge) [nM]	IC50 ([1]; earlier version of the assay with a measurement limit of 0.4 nM) [nM]
9.2	150 ± 20 (≈ 71.8 µg/mL)	78 to 79		O=C(NCCNC(=O)NCC12CC3CC(CC(F)(C3)C1)C2)NCC12CC3CC(CC(F)(C3)C1)C2 [Compound 11a]		
1.8	150 ± 20 (≈ 73.9 µg/mL)	87 to 88		O=C(NCCCNC(=O)NCC12CC3CC(CC(F)(C3)C1)C2)NCC12CC3CC(CC(F)(C3)C1)C2 [Compound 11b]		
5.1	60 ± 10 (≈ 30.7 µg/mL)	222 to 223		O=C(NCCNC(=O)NCC12CC3CC(CC(Cl)(C3)C1)C2)NCC12CC3CC(CC(Cl)(C3)C1)C2 [Compound 12a]		
< 0.04	80 ± 10 (≈ 42 µg/mL)	194 to 195		O=C(NCCCNC(=O)NCC12CC3CC(CC(Cl)(C3)C1)C2)NCC12CC3CC(CC(Cl)(C3)C1)C2 [Compound 12b]		
< 0.04	60 ± 10 (≈ 32.4 µg/mL)	213 to 214		O=C(NCCCCNC(=O)NCC12CC3CC(CC(Cl)(C3)C1)C2)NCC12CC3CC(CC(Cl)(C3)C1)C2 [Compound 12c]		
< 0.04	70 ± 10 (≈ 38.8 µg/mL)	157 to 158	0.002	O=C(NCCCCCNC(=O)NCC12CC3CC(CC(Cl)(C3)C1)C2)NCC12CC3CC(CC(Cl)(C3)C1)C2 [Compound 12d]		
< 0.04	60 ± 10 (≈ 34.1 µg/mL)	148 to 149		O=C(NCCCCCCNC(=O)NCC12CC3CC(CC(Cl)(C3)C1)C2)NCC12CC3CC(CC(Cl)(C3)C1)C2 [Compound 12e]		
< 0.04	80 ± 10 (≈ 46.5 µg/mL)	164 to 165		O=C(NCCCCCCCNC(=O)NCC12CC3CC(CC(Cl)(C3)C1)C2)NCC12CC3CC(CC(Cl)(C3)C1)C2 [Compound 12f]		
0.1	60 ± 10 (≈ 35.7 µg/mL)	187 to 188		O=C(NCCCCCCCCNC(=O)NCC12CC3CC(CC(Cl)(C3)C1)C2)NCC12CC3CC(CC(Cl)(C3)C1)C2 [Compound 12g]		
< 0.04	60 ± 10 (≈ 37.4 µg/mL)	189 to 190		O=C(NCCCCCCCCCCNC(=O)NCC12CC3CC(CC(Cl)(C3)C1)C2)NCC12CC3CC(CC(Cl)(C3)C1)C2 [Compound 12i]		
